Target: Mitogen-activated protein kinase 9 (Homo sapiens, UniProt P45984)
Assay: Inhibition of His6-tagged JNK2 (unknown origin) assessed as reduction in c-Jun phosphorylation using GST-c-Jun (1 to 79 residues) and [gamma32P]ATP incubated for 1 hr by scintillation counting assay

Chain of Mitogen-activated protein kinase 9 (P45984 whole entry, the tested form may be a part): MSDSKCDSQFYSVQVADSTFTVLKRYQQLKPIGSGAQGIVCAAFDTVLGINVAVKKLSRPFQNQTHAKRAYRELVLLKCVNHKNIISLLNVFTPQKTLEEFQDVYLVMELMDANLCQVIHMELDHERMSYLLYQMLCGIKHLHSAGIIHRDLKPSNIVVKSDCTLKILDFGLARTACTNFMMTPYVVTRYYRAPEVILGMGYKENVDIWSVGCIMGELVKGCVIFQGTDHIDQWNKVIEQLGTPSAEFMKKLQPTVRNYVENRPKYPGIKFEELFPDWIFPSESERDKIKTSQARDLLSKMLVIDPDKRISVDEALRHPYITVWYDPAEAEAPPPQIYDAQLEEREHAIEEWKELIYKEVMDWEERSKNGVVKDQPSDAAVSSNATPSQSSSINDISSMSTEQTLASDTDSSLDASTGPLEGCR

Row | Compound | IC50 [µM]
1 | Fc1ccc(-c2n[nH]c3ccc(-c4n[nH]c(CN5CCCC5)n4)cc23)cc1 | 0.5 to 10
2 | CC(C)C(=O)Nc1cccc(-c2n[nH]c3ccc(-c4nc[nH]n4)cc23)c1 | 0.5 to 10
3 | COc1ccc(-c2n[nH]c3ccc([N+](=O)[O-])cc23)cc1OC | ≤ 10
4 | O=C(Nc1cccc(-c2n[nH]c3ccc(-c4nc[nH]n4)cc23)c1)[C@@H](O)c1ccccc1 | 0.5 to 10
5 | c1cc(OCCN2CCNCC2)cc(-c2n[nH]c3ccc(-c4ncn[nH]4)cc23)c1 | 1 to 10
6 | CN(C)Cc1nnc(-c2ccc3[nH]nc(-c4ccc(F)cc4)c3c2)[nH]1 | 0.5 to 10
7 | CN(C)CC(=O)Nc1cccc(-c2n[nH]c3ccc(-c4nc[nH]n4)cc23)c1 | 0.5 to 10
8 | NC(=O)c1ccc2[nH]nc(-c3cccc(C(=O)NCCN4CCCCC4)c3)c2c1 | 1 to 10
9 | c1nc(-c2ccc3[nH]nc(-c4ccsc4)c3c2)n[nH]1 | 1 to 10
10 | O=C(NCC1CC1)c1cccc(-c2n[nH]c3ccc(-c4ncn[nH]4)cc23)c1 | 0.5 to 10
11 | NC(=O)c1ccc2[nH]nc(-c3cccc(NC(=O)CCN4CCCCC4)c3)c2c1 | 1 to 10
12 | COc1ccc(C(=O)Nc2cccc(-c3n[nH]c4ccc(-c5nc[nH]n5)cc34)c2)cc1 | 0.5 to 10
13 | COC(=O)c1ccc(C(=O)Nc2ccc3[nH]nc(-c4ccc(F)cc4)c3c2)cc1 | ≤ 10
14 | COCC(=O)Nc1ccc(-c2n[nH]c3ccc(-c4nc[nH]n4)cc23)cc1 | 1 to 10
15 | O=C(Nc1ccc2[nH]nc(-c3ccccc3)c2c1)c1ccccc1O | 1 to 10
16 | O=C(Nc1ccc2[nH]nc(-c3ccc(F)cc3)c2c1)c1cccs1 | 1 to 10
17 | O=C(Nc1ccc2[nH]nc(-c3ccc(F)cc3)c2c1)N1CCOCC1 | ≤ 10
18 | O=C(O)CCNC(=O)c1ccc2[nH]nc(-c3ccc(F)cc3)c2c1 | 1 to 10
19 | CN(C)CCNC(=O)c1ccc2[nH]nc(-c3cc4ccccc4o3)c2c1 | 1 to 10
20 | c1ccc(COc2ccc3[nH]nc(-c4ccccc4)c3c2)cc1 | ≤ 10
21 | O=C(NC1CC1)c1cccc(-c2n[nH]c3ccc(-c4nc[nH]n4)cc23)c1 | 0.5 to 10
22 | CN(C)Cc1n[nH]c(-c2ccc3[nH]nc(-c4cccc(C(=O)NC5CCC5)c4)c3c2)n1 | 0.5 to 10
23 | COCC(=O)Nc1cccc(-c2n[nH]c3ccc(C(N)=O)cc23)c1 | 1 to 10
24 | CN(C)Cc1n[nH]c(-c2ccc3[nH]nc(-c4cccc(C(=O)NCCN5CCCCC5)c4)c3c2)n1 | 0.5 to 10
25 | c1ccc2oc(-c3n[nH]c4ccc(-c5nnn[nH]5)cc34)cc2c1 | 0.5 to 10
26 | O=C(/C=C/c1ccccc1)Nc1cccc(-c2n[nH]c3ccc(-c4nc[nH]n4)cc23)c1 | 1 to 10

Row | Compound | IC50 [µM]
27 | O=[N+]([O-])c1ccc2[nH]nc(-c3ccc4ccccc4c3)c2c1 | ≤ 10
28 | CC(Oc1ccccc1)C(=O)Nc1cccc(-c2n[nH]c3ccc(-c4nc[nH]n4)cc23)c1 (stereo unspecified) | 0.5 to 10
29 | CCOC(=O)C1CCN(C(=O)c2ccc3[nH]nc(-c4ccc(F)cc4)c3c2)CC1 | ≤ 10
30 | CC(O)C(=O)Nc1cccc(-c2n[nH]c3ccc(-c4nc[nH]n4)cc23)c1 (stereo unspecified) | 0.5 to 10
31 | NC(=O)c1ccc2[nH]nc(-c3cccc(NC(=O)Cc4ccncc4)c3)c2c1 | 0.5 to 10
32 | O=C(c1ccc2[nH]nc(-c3ccc(F)cc3)c2c1)N1CCNCC1 | ≤ 10
33 | NC(=O)c1ccc2[nH]nc(-c3cccc(NC(=O)c4cccnc4)c3)c2c1 | 1 to 10
34 | O=S(=O)(Nc1ccc2[nH]nc(-c3ccc(F)cc3)c2c1)c1ccccc1 | ≤ 10
35 | O=C(NOCc1ccccc1)c1ccc2[nH]nc(-c3ccc(F)cc3)c2c1 | ≤ 10
36 | c1ccc(CCc2n[nH]c3ccc(-c4nnn[nH]4)cc23)cc1 | 1 to 10
37 | O=C(NC1CCN(Cc2ccccc2)CC1)c1cccc(-c2n[nH]c3ccc(-c4nc[nH]n4)cc23)c1 | 0.5 to 10
38 | Cc1n[nH]c(-c2ccc3[nH]nc(-c4ccc(F)cc4)c3c2)n1 | 1 to 10
39 | O=C(Cc1ccc(F)cc1)Nc1cccc(-c2n[nH]c3ccc(-c4nc[nH]n4)cc23)c1 | 0.5 to 10
40 | O=C(O)Cc1nnc(-c2ccc3[nH]nc(-c4ccc(F)cc4)c3c2)[nH]1 | 1 to 10
41 | CCN(CC)Cc1nc(-c2ccc3[nH]nc(-c4ccc(F)cc4)c3c2)n[nH]1 | 1 to 10
42 | O=C(Nc1cccnc1)c1cccc(-c2n[nH]c3ccc(-c4nc[nH]n4)cc23)c1 | 0.5 to 10
43 | O=C(Nc1cccc(-c2n[nH]c3ccc(-c4nn[nH]n4)cc23)c1)c1cccnc1 | 0.5 to 10
44 | COC(=O)c1cccc(C(=O)Nc2ccc3[nH]nc(-c4ccc(F)cc4)c3c2)c1 | ≤ 10
45 | CN(C)CCCOc1cccc(-c2n[nH]c3ccc(-c4ncn[nH]4)cc23)c1 | 1 to 10
46 | Fc1ccc(-c2n[nH]c3ccc(NCc4cccnc4)cc23)cc1 | ≤ 10
47 | c1cc(OCCN2CCCC2)cc(-c2n[nH]c3ccc(-c4ncn[nH]4)cc23)c1 | 1 to 10
48 | Fc1ccc(-c2n[nH]c3ccc(CCc4ccccc4)cc23)cc1 | ≤ 10
49 | Fc1ccc(-c2n[nH]c3ccc(-c4n[nH]c(CN5CCOCC5)n4)cc23)cc1 | 1 to 10
50 | NC(=O)c1ccc2[nH]nc(-c3cccc(NC(=O)CCc4ccc(F)cc4)c3)c2c1 | 1 to 10
51 | O=C(O)CNC(=O)c1ccc2[nH]nc(-c3ccc(F)cc3)c2c1 | 1 to 10
52 | COCCC(=O)Nc1cccc(-c2n[nH]c3ccc(-c4nn[nH]n4)cc23)c1 | 0.5 to 10

Row | Compound | IC50 [µM]
53 | CC(C)NC(=O)c1ccc2[nH]nc(-c3cc4ccccc4o3)c2c1 | 1 to 10
54 | CNC(=O)c1ccc2[nH]nc(-c3ccc(F)cc3)c2c1 | 1 to 10
55 | Fc1ccc(-c2n[nH]c3ccc(-c4ncc[nH]4)cc23)cc1 | 1 to 10
56 | NC(=O)c1ccc2[nH]nc(-c3ccc(O)cc3)c2c1 | 1 to 10
57 | O=C(O)CCc1ccc2[nH]nc(-c3ccc(F)cc3)c2c1 | ≤ 10
58 | O=C(O)c1ccc(NC(=O)c2ccc3[nH]nc(-c4ccc(F)cc4)c3c2)cc1 | 1 to 10
59 | COc1ccc(/C=C/c2n[nH]c3ccc(-c4nc[nH]n4)cc23)cc1 | 1 to 10
60 | O=C(Nc1ccncc1)c1cccc(-c2n[nH]c3ccc(-c4nc[nH]n4)cc23)c1 | 0.5 to 10
61 | O=C(Nc1cccc(-c2n[nH]c3ccc(-c4nc[nH]n4)cc23)c1)c1ccoc1 | 0.5 to 10
62 | NC(=O)c1ccc2[nH]nc(-c3cccc(NC(=O)C4CCOC4)c3)c2c1 (stereo unspecified) | 0.5 to 10
63 | O=C(Nc1cccc(-c2n[nH]c3ccc(-c4nc[nH]n4)cc23)c1)c1ccccc1 | 0.5 to 10
64 | O=C(Nc1cccc(-c2n[nH]c3ccc(-c4nc[nH]n4)cc23)c1)C(=O)c1ccco1 | 1 to 10
65 | CN(C)CCOc1cccc(-c2n[nH]c3ccc(-c4nnn[nH]4)cc23)c1 | 1 to 10
66 | c1cc(-c2n[nH]c3ccc(-c4nnn[nH]4)cc23)ccc1OCCN1CCOCC1 | 0.5 to 10
67 | O=C(N[C@H]1CCc2ccccc21)c1cccc(-c2n[nH]c3ccc(-c4ncn[nH]4)cc23)c1 | 0.5 to 10
68 | CN(C)CCNC(=O)c1ccc2[nH]nc(-c3ccc(F)cc3)c2c1 | ≤ 10
69 | CCOC(=O)c1ccc2[nH]nc(-c3ccc(F)cc3)c2c1 | 1 to 10
70 | CN(C)CC(=O)Nc1ccc(-c2n[nH]c3ccc(-c4nc[nH]n4)cc23)cc1 | 1 to 10
71 | NC(=O)c1ccc2[nH]nc(-c3ccc4c(c3)OCCO4)c2c1 | 1 to 10
72 | CCOc1cccc(-c2n[nH]c3ccc([N+](=O)[O-])cc23)c1 | ≤ 10
73 | FC(F)(F)c1ccc2[nH]nc(-c3ccccc3)c2c1 | ≤ 10
74 | O=C(Nc1nnn[nH]1)c1ccc2[nH]nc(-c3ccc(F)cc3)c2c1 | 1 to 10
75 | NC(=O)c1ccc2[nH]nc(-c3ccc4c(c3)CCO4)c2c1 | 1 to 10
76 | Oc1ccc2[nH]nc(-c3ccccc3)c2c1 | 1 to 10

From ChEMBL document CHEMBL3882725, “Indazole derivatives as JNK inhibitors and compositions and methods related thereto” (2002)
